Legend:
[1] = molecular target: T1, Polyunsaturated fatty acid 5-lipoxygenase (Rattus norvegicus) (UniProt P12527); details: RBL-1, 15 uM
T1 sequence (whole entry): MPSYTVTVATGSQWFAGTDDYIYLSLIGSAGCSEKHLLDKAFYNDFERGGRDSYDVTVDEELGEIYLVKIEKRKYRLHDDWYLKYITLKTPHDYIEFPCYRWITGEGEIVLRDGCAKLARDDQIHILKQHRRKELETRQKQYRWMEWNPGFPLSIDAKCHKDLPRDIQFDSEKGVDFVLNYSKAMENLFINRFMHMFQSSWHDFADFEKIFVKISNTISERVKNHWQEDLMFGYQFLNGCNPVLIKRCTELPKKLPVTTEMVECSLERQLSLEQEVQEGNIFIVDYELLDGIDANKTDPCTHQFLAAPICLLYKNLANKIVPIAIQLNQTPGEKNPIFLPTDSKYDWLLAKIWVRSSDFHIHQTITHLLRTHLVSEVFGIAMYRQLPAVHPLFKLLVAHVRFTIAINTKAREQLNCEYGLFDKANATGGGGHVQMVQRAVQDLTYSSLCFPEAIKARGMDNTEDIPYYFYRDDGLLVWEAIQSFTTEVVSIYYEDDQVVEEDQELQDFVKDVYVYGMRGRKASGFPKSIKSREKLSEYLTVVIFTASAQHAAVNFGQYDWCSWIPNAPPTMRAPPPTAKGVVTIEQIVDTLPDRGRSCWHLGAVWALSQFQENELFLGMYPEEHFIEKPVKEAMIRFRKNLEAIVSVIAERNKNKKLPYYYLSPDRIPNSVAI
Description: Inhibition of rat 5-lipoxygenase in rat RBL1 cells at 15 uM

[2] = molecular target: T1, Polyunsaturated fatty acid 5-lipoxygenase (Rattus norvegicus); test: Inhibition of rat 5-lipoxygenase in rat RBL1 cells at 30 uM; format: cell-based; details: RBL-1

| inhibition [1] [%] | inhibition [2] [%] | Compound |
| --- | --- | --- |
| 50 | – | O=C1CCN(c2ccccc2)N1 |
| – | 64 | COC(=O)c1ccc(O)c(Oc2cc(C(=O)OC)ccc2O)c1 |

From ChEMBL document CHEMBL1148062, “Cylindol A, a novel biphenyl ether with 5-lipoxygenase inhibitory activity, and a related compound from Imperata Cylindrica” (J Nat Prod, 1994)
